Reference: article PMC7822874, “Chemoprotective antimalarials identified through quantitative high-throughput screening of Plasmodium blood and liver stage parasites” (Scientific Reports, 2021)

Each molecule was assayed on Plasmodium falciparum Dd2 asexual blood stage parasites (assay: microbe, parasite or virus in culture). Details: Plasmodium falciparum, DD2, Erythrocyte, 72 h.
Set-up: species or system Plasmodium falciparum Dd2 in human erythrocytes; single determination (one 11-point concentration-response curve)

Structure (SMILES) | AC50
Cc1ccccc1CN1C(=O)C(C)N=C(c2ccccc2)c2ccccc21 (stereo not shown) [NCGC00140509-01] | 15 µM
CC(C(=O)c1c[nH]c2ccccc12)N1CCN(C(=O)c2ccco2)CC1 (stereo not shown) [MLS000768379-01] | 5.96 µM

Same assay, conditions: Plasmodium falciparum, DD2, Erythrocyte, 72 h; read-out: AC50

Structure (SMILES) | AC50
NCCc1cccc(CN2CCCC(COc3ccccc3F)C2)c1 (stereo not shown) [NCGC00434821-01] | 2.66 µM
CCn1cc(CN2CCCC(COc3ccccc3C(=O)N3CCCC3)C2)c2ccccc21 (stereo not shown) [NCGC00427142-01] | 8.41 µM
COc1ccc(CNC[C@H]2O[C@H](Cc3cc(-c4ccccc4)on3)CC[C@@H]2O)cc1 [NCGC00401044-01] | 3.85 µM
CCOC(=O)c1ccc2c(c1)N(CC(=O)N(C)c1ccccc1)C(=O)c1ccccc1S2 [NCGC00132027-01] | 10.6 µM
Cc1ccccc1OCCSc1nc2ccc(NC(=O)c3cccs3)cc2s1 [NCGC00118502-01] | 5.31 µM
CCOC(=O)C1(Cc2ccc(Cl)cc2)CCN(Cc2ccc(OC)cc2O)CC1 [NCGC00428386-01] | 0.188 µM
Cc1cc(C)n(CC(O)COc2ccccc2)n1 (stereo not shown) [MLS000525359-01] | 13.3 µM
O=C(Cn1c(=O)n(Cc2ccc(C(=O)NCc3ccc4c(c3)OCO4)cc2)c(=O)c2ccccc21)Nc1cccc(Cl)c1 [NCGC00106483-01] | 5.96 µM
CC1CCN(C(=O)C[C@@H]2c3nc(NC(=O)c4cccc(F)c4)sc3C[C@@H]3[C@](C)(CO)[C@H](O)CC[C@]32C)CC1 [NCGC00394310-01] | 10.6 µM
COC1C(=O)N(c2cccc(F)c2)C12CCNCC2 (stereo not shown) [NCGC00463379-01] | 10.6 µM
Cc1cnc(CC2CCCN([S+](=O)([O-])c3ccccc3)C2)n1CC1CC1 (stereo not shown) [NCGC00469674-01] | 6.68 µM
O=C(NC1=C(Nc2ccc(Cl)cc2)C(=O)c2ccccc2C1=O)c1ccccc1 [MLS000375030-01] | 0.473 µM
O=C(c1ccccc1OCC1CCCN(Cc2ccncc2F)C1)N1CCCC1 (stereo not shown) [NCGC00427122-01] | 10.6 µM
CCC(=O)O[C@]1(C(=O)CCl)[C@@H](C)C[C@H]2[C@@H]3C[C@H](F)C4=CC(=O)C=C[C@]4(C)[C@@]3(F)[C@@H](O)C[C@@]21C [NCGC00167451-01] | 10.6 µM
CC(C)CNC(=O)c1nc(-c2ccc(Cl)cc2)c2cnccn12 [NCGC00476461-01] | 8.63 µM
COc1ccc(CCNC(=O)CC(c2ccccc2OC)c2c[nH]c3ccccc23)cc1OC (stereo not shown) [NCGC00473331-01] | 13.3 µM
CC(Oc1ccccc1)C(=O)Nc1nc(-c2ccccn2)cs1 (stereo not shown) [MLS002158763-01] | 8.41 µM
CC(=O)Nc1ccc(CN2CC(N(C)c3ccccc3C)C2)cc1 [NCGC00476647-01] | 12.2 µM
Cc1ncc(CN2CCC(C(=O)Nc3ccc(-n4cccn4)cc3)CC2)s1 [MLS001101085-01] | 4.73 µM
Cc1ccc(CNCC(O)(c2ccccc2)c2ccc(Cl)cc2)cc1 (stereo not shown) [MLS000721405-01] | 2.99 µM
COCCCNC(=O)C1(C)CN(C)Cc2ccc(Nc3ccccc3)nc21 (stereo not shown) [NCGC00414477-01] | 6.85 µM
Cc1ccc(-c2nnc(Nc3ccc(OCC(N)=O)cc3)c3ccccc23)cc1[S+](=O)([O-])NCC1CCCO1 (stereo not shown) [NCGC00100178-01] | 4.73 µM
Cc1cc(Oc2c(C(F)(F)F)oc3c(CN4CCC(C)CC4)c(O)ccc3c2=O)cc(C)c1Cl [NCGC00101140-01] | 0.75 µM
CCN(CC(O)c1cccc(O)c1)C(=O)C12CC3CC(CC(C3)C1)C2 (stereo not shown) [MLS001166662-01] | 4.73 µM
CC(C)(C)n1nnnc1C(c1cc2cc3c(cc2[nH]c1=O)OCO3)N1CCN(c2ccccc2)CC1 (stereo not shown) [MLS000072810-01] | 7.5 µM
O=C(NNc1nc(-c2ccc(Br)cc2)cs1)c1ccco1 [MLS000699189-01] | 5.31 µM

Structure (SMILES) | AC50
Cc1noc(-c2cccs2)c1C(=O)NC(C)c1cccc2ccccc12 (stereo not shown) [NCGC00358764-02] | 0.668 µM
O=[N+]([O-])c1ccc(N2CCN(/C(S)=N/C3CCCCC3)CC2)cc1 [MLS000574247-01] | 1.88 µM
COc1ccc(CCn2c(=N)c(C(=O)NCCN3CCOCC3)cc3c(=O)n4cccc(C)c4nc32)cc1OC [MLS001146185-01] | 13.3 µM
Cc1cnc(C2CCC2)n1C1CCCN(C(=O)CCCc2ccccc2)C1 (stereo not shown) [NCGC00464236-01] | 15 µM
Cc1cc(C(F)(F)F)nn1CC(=O)NCCc1ncc(C)n1CC1CC1 [NCGC00469801-01] | 10.6 µM
CNC(=O)c1cc(-c2ccnc(N3CCOCC3)c2)cc2c1OCCN2Cc1cccnc1 [NCGC00417111-01] | 8.41 µM
COc1cccc(NC(=O)c2sc3nc(C)c(C(=O)Nc4ccc(C)cc4C)c(-c4ccccc4Cl)c3c2N)c1 [NCGC00104946-01] | 2.66 µM
COc1cccc(CN2CCC3(CC2)OC(=O)N(Cc2ccccc2)C3(C)c2ccccc2)c1 (stereo not shown) [NCGC00415605-01] | 15 µM
CCOC(=O)c1ccccc1NC(=O)c1cn(CC(C)C)c(=O)c2cc(OC)c(OC)cc12 [NCGC00104537-01] | 8.41 µM
CN(C)Cc1cc(C[C@@H]2C[C@H](NCc3ccccc3O)C2(C)C)no1 [NCGC00395458-01] | 17.2 µM
CCC(CC)c1cc([C@H]2CN3CC[C@H]2C[C@@H]3CNC(=O)NCc2ccccc2)nc(-c2ccncc2)n1 [NCGC00400244-01] | 4.22 µM
CCc1ccc2c(c1)cc(CN(/C(S)=N/c1cccc(C)c1)C1CC1)c1nnnn12 [MLS000556704-01] | 3.35 µM
COc1cc(NC(=O)CSc2nc(-c3ccccc3)no2)cc(OC)c1 [NCGC00127876-01] | 2.37 µM
COc1cc(O)c(C(CCN2CCCCC2)c2cc(OC)c(OC)c(OC)c2)c(OC)c1 (stereo not shown) [MLS000879476-01] | 2.66 µM
CC1=C[C@@H](CN(C)C)[C@H](C(C)C)C[C@H]1Cc1nc2cccc(C)c2[nH]1 [NCGC00393074-01] | 15.3 µM
COc1cc2c(cc1OC1CCCC1)NC(=O)C21CCN(c2cnccn2)CC1 [NCGC00416906-01] | 7.69 µM
Cc1nn(CCC(=O)N[C@H]2CC[C@H]2NC2CCCCC2)c(C)c1C [NCGC00442733-01] | 6.68 µM
c1ccc(Sc2cccc3ccccc23)c(CNC2=NCCN2)c1 [MLS000702748-01] | 13.3 µM
COc1cccc(CC(=O)N2CCCn3nc(C)c(-c4ccccc4OCc4ccccc4)c32)c1 [NCGC00420361-01] | 9.44 µM
Cc1cc(OC2CN([S+](=O)([O-])c3cccs3)C2)ccc1F [NCGC00476695-01] | 15.3 µM
CCc1cccc2c(C(CC(=O)N3CCC(C)CC3)c3cccc(C)c3)c[nH]c12 (stereo not shown) [NCGC00473418-01] | 4.73 µM
CCN1CCN(Cc2cc(Br)cc(Br)c2O)CC1 [MLS000530316-01] | 7.5 µM
CCC(C)(C)n1nnnc1C(c1cc2cccc(C)c2nc1O)N1CCN(C(=O)c2ccco2)CC1 (stereo not shown) [MLS000073230-01] | 6.68 µM
CCCCCNc1nc2c(-c3ccccc3)nnn2c2ccccc12 [NCGC00111529-01] | 11.9 µM
Cc1ccc(S(=O)(=O)N2CCN(/C(S)=N/Cc3ccc4c(c3)OCO4)CC2)cc1 [MLS001002637-01] | 2.37 µM
CCOc1ccccc1CN1CCC2(CCN(CCC(C)C)CC2)Oc2ccccc21 [NCGC00478188-01] | 3.35 µM

Structure (SMILES) | AC50
CNC(=O)CCn1ncc2cc(OCc3ccccc3-c3ccccc3OC)ccc21 [NCGC00418023-01] | 15.3 µM
O=C1CC(c2ccccc2)N(Cc2ccncc2)CCCN(C(=O)Nc2ccccc2F)CCN1 (stereo not shown) [NCGC00467191-01] | 1.68 µM
COc1cc(-c2nc(-c3ccccc3)c(-c3ccc(Br)cc3)[nH]2)cc(OC)c1O [NCGC00100017-01] | 2.11 µM
CC1=C[C@@H](CN2CCC(C)CC2)[C@H](C(C)C)C[C@H]1Cc1nnc(-c2cccnc2)o1 [NCGC00421463-01] | 15.3 µM
O=[S+]([O-])(c1ccccc1)N1CC(CNc2cccnc2)C2(CN(c3ccccc3)C2)C1 (stereo not shown) [NCGC00415961-01] | 21.7 µM
CCC(C)(C)n1nnnc1C(c1ccccc1OC)N1CCN(C(=O)c2ccco2)CC1 (stereo not shown) [MLS001221981-01] | 15 µM
COc1cccc(NC(=O)c2sc3nc(C)c(C(=O)Nc4ccc(C)cc4C)c(-c4cccs4)c3c2N)c1 [NCGC00107008-01] | 5.96 µM
CC(C)(C)c1c[nH]c([C@@H]2COCCN2Cc2ccccc2O)n1 [NCGC00395090-01] | 13.7 µM
CCc1cccc(C)c1NC(=O)CN1CCN(S(=O)(=O)c2ccc(C(C)(C)C)cc2)CC1 [MLS001070982-01] | 8.41 µM
COc1cccc(CNCCSc2nnnn2C)c1OCc1ccc(Cl)cc1 [NCGC00103033-01] | 2.66 µM
CCOC(=O)N1CCc2c(sc3c2c(=O)n(-c2ccccc2C(F)(F)F)c(=O)n3Cc2ccccc2C)C1 [NCGC00111905-01] | 13.3 µM
CN(Cc1ccc(-n2cccn2)cc1)CC1CCN(CCc2ccc(F)cc2)CC1 [NCGC00425928-01] | 10.6 µM
CN(C)c1cccc(Nc2cc3c(cn2)CN(Cc2ccccc2)CCN3)c1 [NCGC00411230-01] | 13.7 µM
COc1cc2c(cc1OC)C(COc1ccc3c(C)cc(=O)oc3c1)N(C(=O)Cc1ccc(F)cc1)CC2 (stereo not shown) [NCGC00104919-01] | 5.96 µM
O=C(Nc1ccc2c(N3CCCC3)ncnc2c1)c1ccc(Br)cc1 [NCGC00425477-01] | 4.73 µM
CCOC(=O)c1ccccc1NC(=O)C(C)Oc1ccccc1 (stereo not shown) [MLS000109889-01] | 10.6 µM
Cc1ccc(-n2c(C3CCN(C(=O)COc4ccc(Cl)cc4)CC3)n[nH]c2=O)cc1 [NCGC00451295-01] | 10.6 µM
CCc1ccc(NC(=O)CSc2nc3[nH]nc(C)c3c(=N)n2-c2ccc(C)cc2)cc1 [NCGC00140694-01] | 6.68 µM
Cc1ccc(/C=N/NC(=O)c2nnn(-c3nonc3N)c2-c2ccc3c(c2)OCO3)s1 [MLS001142659-01] | 0.841 µM
Cc1cc(C)c(CNC(=O)c2cc(-c3cccnc3)cc3c2OCCN3C(C)C)c(=O)[nH]1 [NCGC00416981-01] | 19.3 µM
N=c1c2c(n(Cc3ccc(F)cc3)c3c1CCC3)CCC2 [MLS000107591-01] | 3.35 µM
c1cc(-c2noc([C@@H]3Cc4[nH]cnc4CN3CC3CCCCC3)n2)ccn1 [NCGC00394653-01] | 21.7 µM
COCCNC(=O)CSc1nc(-c2cc(OC)c(OC)c(OC)c2)[nH]c1-c1ccc(Cl)cc1 [NCGC00107926-01] | 8.41 µM
O=[N+]([O-])c1ccc([S+](=O)([O-])N2CCn3cccc3C2c2ccc(Br)cc2)cc1 (stereo not shown) [NCGC00137374-01] | 5.96 µM
CCCOc1ccc(-c2nonc2NC(=O)c2cc(OC)c(OC)c(OC)c2)cc1OCCC [NCGC00116043-01] | 5.96 µM
